# From ChEMBL document CHEMBL1828533, “Lipid and sulfur substituted prenylcysteine analogs as human Icmt inhibitors” (Bioorg Med Chem Lett, 2011)
# Activity calls are given as the source filed them. The calls are words filed in the database; no cut-off is given here.
# How the values were obtained:
# [1] = biological target: T1, Protein-S-isoprenylcysteine O-methyltransferase (Homo sapiens, UniProt O60725); test: Inhibition of human ICMT at 10 uM by vapor diffusion assay
# [2] = biological target: T1, Protein-S-isoprenylcysteine O-methyltransferase; test: Inhibition of human ICMT at 25 uM by vapor diffusion assay
# [3] = biological target: T1, Protein-S-isoprenylcysteine O-methyltransferase; test: Inhibition of human ICMT by vapor diffusion assay
# [4] = biological target: T1, Protein-S-isoprenylcysteine O-methyltransferase; test: Substrate activity at human ICMT by vapor diffusion assay
# T1 sequence (O60725 whole entry, the tested form may be a part): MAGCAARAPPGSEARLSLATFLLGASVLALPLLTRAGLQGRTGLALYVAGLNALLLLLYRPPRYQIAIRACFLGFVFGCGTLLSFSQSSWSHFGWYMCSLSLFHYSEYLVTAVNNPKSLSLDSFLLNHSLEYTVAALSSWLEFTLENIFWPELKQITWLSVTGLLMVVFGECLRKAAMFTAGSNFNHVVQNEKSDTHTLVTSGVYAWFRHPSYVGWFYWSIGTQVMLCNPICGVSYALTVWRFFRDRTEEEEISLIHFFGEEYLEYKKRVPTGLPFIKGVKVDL
Compound,inhibition [1],further results
CCCCCc1ccc(CC/C(C)=C/CSC[C@H](NC(C)=O)C(=O)O)cc1,23.1%,–
CC(=O)N[C@@H](CSC/C=C(/Cc1ccccc1)c1ccccc1)C(=O)O,15.7%,–
CC(=O)N[C@@H](CSC/C=C(/Cc1ccc2c(c1)Cc1ccccc1-2)c1ccccc1)C(=O)O,25.3%,–
CC(=O)N[C@@H](CSC/C=C(/C)CC/C=C(/C)CCC=C(C)C)C(=O)O,–,inhibition [2]: 100%
CC(=O)N[C@@H](CSC/C=C(\C)COc1ccc2ccccc2c1)C(=O)O,14.5%,–
CC(=O)N[C@@H](CSC/C=C(\C)COc1ccc(Cc2ccccc2)cc1)C(=O)O,9.8%,–
CCCCCCCCc1ccc(CC/C(C)=C/CSC[C@H](NC(C)=O)C(=O)O)cc1,31.1%,IC50 [3]: 34.6 µM
CC(=O)N[C@@H](CSC/C=C(\C)CCCCOc1ccc2ccccc2c1)C(=O)O,22.4%,–
CC(C)=CCC/C(C)=C/CC/C(C)=C/Cc1cn(C[C@H](NC(=O)CCS(=O)(=O)c2ccccc2)C(=O)O)nn1,22.7%,Activity [4]: inactive
CC(=O)N[C@@H](Cn1cc(C/C=C(\C)CC/C=C(\C)CCC=C(C)C)nn1)C(=O)O,19.5%,Activity [4]: inactive
CCCCCCc1ccc(CC/C(C)=C/CSC[C@H](NC(C)=O)C(=O)O)cc1,18.8%,–
CCCc1ccc(CC/C(C)=C/CSC[C@H](NC(C)=O)C(=O)O)cc1,20.7%,–
CC(C)=CCC/C(C)=C/CC/C(C)=C/Cc1cn(C[C@H](NC(=O)c2ccccc2Oc2ccccc2)C(=O)O)nn1,35.9%,IC50 [3]: 19.4 µM
CC(C)=CCC/C(C)=C/CC/C(C)=C/Cc1cn(C[C@H](NC(=O)c2ccccc2-c2ccccc2)C(=O)O)nn1,17%,Activity [4]: inactive
CC(=O)N[C@@H](CSC/C=C(\C)COc1ccc(Oc2ccccc2)cc1)C(=O)O,15.5%,–
COc1ccc([N+](=O)[O-])c(C(=O)N[C@@H](Cn2cc(C/C=C(\C)CC/C=C(\C)CCC=C(C)C)nn2)C(=O)O)c1,10.1%,Activity [4]: inactive
CC(=O)N[C@@H](CSC/C=C(/Cc1ccc(-c2ccccc2)cc1)c1ccccc1)C(=O)O,26.6%,–
CC(=O)N[C@@H](CSC/C=C(\C)CCCCOc1ccc(Oc2ccccc2)cc1)C(=O)O,19.4%,–
